Test results reported in patent US20220387635A1, “PET IMAGING OF CANCEROUS CELLS USING 18F-FLUOROACETATE” (priority 2019, published 2022).
“Also recorded” adds a separate entry of the source.

Assays:
[1] = system: NALM-6 ALL cells; assay: In vitro radiotracer uptake in NALM-6 cells; assay type: cell-based; details: for Uptake rate: normalized to [14C]-thymidine, Example 1; for Uptake rate (slope of linear trendline of cell:media ratio): uptake measured at 30, 60, 120 min, FIG. 1 legend
Procedure: Cell uptake studies were performed in the presence of [^3H]-flouroacetate, [^3H]-glucose, and [^14C]-thymidine. Uptake levels were measure at 30, 60, and 120-minute intervals and expressed as a ratio of cellular retention versus concentration in surrounding media (cell:media ratio). Uptake rates were determined as a function of the slope of linear trendline. [^3H]-flouroacetate uptake rates were higher (dotted line; 0.053 min^−1) compared to glucose (dashed line; 0.028 min-1) and thymidine (solid line; 0.024 min^−1).
In vitro uptake of [^3H]-FA, [^3H]-glucose, and [^14C]-thymidine. Radiotracer uptake studies were performed as described previously (Najjar et al., 2009). Briefly, 10^7 NALM-6 were suspended in 6 mL of RPMI medium containing 10% FBS, [^14C]thymidine (0.01 μCi/mL; Moravek, Brea, Calif., USA) and [^3H]-fluoroacetate (0.1 μCi/mL; Moravek) or [^14C]thymidine (0.01 μCi/mL and [^3H]-glucose (2.5 μCi/mL). At time intervals of 30, 60, and 120 minutes, 1 mL aliquots were removed and the cells were pelleted in pre-weighed vials. A […], aliquot of the supernatant was transferred to a pre-weighed scintillation tube. The pellets were weighed following removal of the remainder of the media and thoroughly resuspended in 0.1 mL of Soluene-350 (Perkin-Elmer, Boston, Mass.). Radioactive beta emissions of the media and cell pellets were measured within pre-calibrated energy ranges using a Packard Tri-Carb 3100TR scintillation counter to quantitate [^3H]-FA, [^3H]-glucose, and [^14C]-thymidine uptake. The activity accumulation ratios of the cell pellets to the media ([disintegrations per minute/g cells]/[disintegrations per minute/g media]) were then determined and plotted.
Accordingly, in vitro radiotracer uptake studies were performed to determine the metabolic preference of NALM-6 cells for uptake and retention of fluoroacetate and glucose. The accumulation [^3H]-fluoroacetate and [^3H]-glucose was measured and compared separate experiments (FIG. 1). Uptake levels were normalized to [^14C]-thymidine levels for direct comparison. […] The rates of [^3H]-glucose and [^14C]-thymidine were more closely matched at 0.028 and 0.024 min^−1, respectively.

[2] = system: NALM-6 tumor within the central nervous system; assay: Dynamic PET time-activity curve in brain and spinal cord; assay type: in vivo, mouse; details: 1-hour dynamic PET; NALM-6 tumor-bearing (LMD) vs normal mice
Source text: Time-activity curve of [^18F]-fluoroacetate biodistribution within the brain and spinal cord. A dynamic PET scan was used to determine the time-dependent distribution [^18F]-fluoroacetate within regions-of-interest (ROI) in the brains and spinal cords of normal (control) and NALM-6 tumor-bearing (LMD) mice.

[3H]C(F)C(=O)O (centres unmarked) [[^3H]-fluoroacetate]
Uptake rate relative to [3H]-glucose [1]: nearly twice the rate | Uptake rate [1]: 0.056 min⁻¹ | Uptake rate (slope of linear trendline of cell:media ratio) [1]: 0.053 min⁻¹

O=C(O)C[18F] [[^18F]-fluoroacetate, ^18F-fluoroacetate]
Time-dependent distribution in brain and spinal cord ROI (time-activity curve) [2]: preferential accumulation of the radiotracer in regions of NALM-6 tumor within the central nervous system; also recorded: higher baseline levels

Cc1cn([C@H]2C[C@H](O)[C@@H](CO)O2)c(=O)[nH]c1=O [[^14C]-thymidine]
Uptake rate [1]: 0.024 min⁻¹ | Uptake rate (slope of linear trendline of cell:media ratio) [1]: 0.024 min⁻¹

OC[C@H]1OC(O)[C@H](O)[C@@H](O)[C@@H]1O (some centres unmarked) [[^3H]-glucose]
Uptake rate [1]: 0.028 min⁻¹ | Uptake rate (slope of linear trendline of cell:media ratio) [1]: 0.028 min⁻¹
